In patent publication US11369659B2, “Method of enhancing a brain or cognitive function” (Brainon Inc., priority 2015, dated 2022):

Tests used:
[1] = test system: scopolamine-induced memory deterioration; experiment: Y maze test; type: in vivo, ICR mice; settings: for spontaneous alternation (memory improving effect): male ICR mice, peptide intraperitoneally 30 minutes before scopolamine, scopolamine 30 minutes before test, compared with scopolamine-administered group
Description: Scopolamine was purchased from Sigma-Aldrich (St. Louis, Mo., USA). 4-week-old male ICR mice were purchased from Korean BioLink Co. (Chungbuk, Korea). After an adaptation period of one week, the mice were used in a test and all reagents were administered intraperitoneally.
The mouse was placed at one end of a Y maze with a length of one branch of 30 cm, a width of 5 cm, and a height of 13 cm and the order of entry into each branch was recorded. Alternation was judged to be successful if the mouse sequentially entered three different branches. Spontaneous alternation was defined as Equation below. Spontaneous alternation (%)=the number of alternations/(total number of entries−2)×100

[2] = test system: scopolamine-induced memory deterioration; experiment: step-through passive avoidance test; type: in vivo; settings: male ICR mice; peptide intraperitoneally 30 minutes before scopolamine; scopolamine 30 minutes before test; retention trial after 24 hours; compared with scopolamine-administered group
Description: Louis, Mo., USA). 4-week-old male ICR mice were purchased from Korean BioLink Co. (Chungbuk, Korea). After an adaptation period of one week, the mice were used in a test and all reagents were administered intraperitoneally. […] A passive avoidance test was performed in the same bright room and dark room. A floor of each room was formed in a shape in which 2-mm stainless steel rods were separated from each other at 1-cm intervals. Bright squares (20×20×20 cm) had 100-W bulbs. These squares were connected to a guillotine door. For an acquisition trial, the mouse was placed in the bright room after injection of the reagents and the door was opened after 10 seconds. When the mouse completely entered the dark room, the door was closed and electric shock was applied for 3 seconds. A retention trial was performed after 24 hours of the acquisition trial and the mouse was positioned in the bright room. A latency time of the acquisition and retention trials was measured by a time until the mouse entered the dark room of the box after the door was opened. The retention latency in the passive avoidance test represents a long-term memory function in rodents.

Molecule | mean of spontaneous alternations ([1]; scopolamine-injected group compared with normal saline group) | spontaneous alternation (memory improving effect) [1] | retention trial latency time (memory improving effect) [2] | spontaneous alternation (memory improving effect) ([1]; listed as sequence number 2)
CN1[C@@H]2C[C@@H](OC(=O)[C@H](CO)c3ccccc3)C[C@H]1[C@@H]1O[C@@H]12 [scopolamine, Scopolamine, reference compound] | significantly lowered | – | – | –
AGAG [Peptide-3] | – | excellent effect as compared with a control group | a little effect | –
GAG [Peptide-2] | – | slight improvement | improved to be close to a normal group administered with saline | excellent effect as compared with a control group
